Results: a compilation of properties of binary mixtures (doi:10.1016/j.molliq.2016.03.072)

Test: xn = mol fraction of the nth substance listed
Details: 101 kPa

CCCC[n+]1ccn(C)c1.F[P-](F)(F)(F)(F)F + CN(C)C=O
viscosity [mPa·s]
Details | x2 = 0 | x2 = 0.3028 | x2 = 0.4909 | x2 = 0.6262 | x2 = 0.7227 | x2 = 0.7963 | x2 = 0.8543 | x2 = 0.9012 | x2 = 0.9399 | x2 = 0.9724
303.15 K | – | 52.1 | 15.21 | 6.21 | 3.48 | – | 1.93 | 1.5 | – | 0.98
313.15 K | 129.7 | 28.84 | – | 5.2 | 3.33 | 2.12 | – | 1.26 | 1.05 | 0.83
323.15 K | 88.5 | 25.91 | – | – | 2.2 | 1.82 | 1.51 | 1.08 | 0.91 | 0.77

CN(C)C=O + CCCC[n+]1ccn(C)c1.F[P-](F)(F)(F)(F)F
x1 = 1
Details | viscosity [mPa·s]
303.15 K | 0.83
313.15 K | 0.74
323.15 K | 0.66
